Measurements taken from ChEMBL document CHEMBL1158755, “Bromophenols coupled with derivatives of amino acids and nucleosides from the red alga Rhodomela confervoides” (J Nat Prod, 2005).

Tests used:
[1] = system: BGC-823; assay: Cytotoxicity against human BGC823 cells by MTT assay; type: functional, cell-based
[2] = system: A549; assay: Cytotoxicity against human A549 cells by MTT assay; type: functional, cell-based
[3] = system: Bel-7402; assay: Cytotoxicity against human Bel7402 cells by MTT assay; type: functional, cell-based
[4] = system: HCT-8; assay: Cytotoxicity against human HCT8 cells by MTT assay; type: functional, cell-based
[5] = system: MCF7; assay: Cytotoxicity against human MCF7 cells by MTT assay; type: functional, cell-based
[6] = system: Staphylococcus aureus; assay: Antibacterial activity against Staphylococcus aureus; type: functional
[7] = system: Escherichia coli; assay: Antibacterial activity against Escherichia coli; type: functional
[8] = system: Candida albicans; assay: Antifungal activity against Candida albicans after 24 hrs; type: functional

| Structure (SMILES) | IC50 [1] [µg/mL] | IC50 [2] [µg/mL] | IC50 [3] [µg/mL] | IC50 [4] [µg/mL] | IC50 [5] [µg/mL] | MIC50 [6] [µg/mL] | MIC50 [7] [µg/mL] | MIC50 [8] [µg/mL] |
| --- | --- | --- | --- | --- | --- | --- | --- | --- |
| COC(=O)C1CCC(=O)N1Cc1cc(O)c(O)c(Br)c1Cc1cc(O)c(O)c(Br)c1Br (configuration not stated) | > 10 | > 10 | > 10 | > 10 | > 10 | > 100 | > 100 | > 100 |
| COC(=O)C1CCC(=O)N1Cc1cc(O)c(O)c(Br)c1Br (configuration not stated) | > 10 | > 10 | > 10 | > 10 | > 10 | > 100 | > 100 | > 100 |
| OC[C@H]1O[C@@H](n2cnc3cnc(NCc4cc(O)c(O)c(Br)c4Br)nc32)[C@H](O)[C@@H]1O | > 10 | > 10 | > 10 | > 10 | > 10 | > 100 | > 100 | > 100 |
| O=C(O)C1CCC(=O)N1Cc1cc(O)c(O)c(Br)c1Br (configuration not stated) | > 10 | > 10 | > 10 | > 10 | > 10 | > 100 | > 100 | > 100 |
